Measurements reported in publication PMC9120017, “Inhibition mechanism of the chloride channel TMEM16A by the pore blocker 1PBC” (Nature Communications, 2022).
Read-outs that look alike come from different tables or passages of the source.

Biological target: T1, mouse TMEM16A mutant I512A (Mus musculus, UniProt Q8BHY3, I512A)
T1 construct: expressed in transfected cells; host or cells: HEK293T
T1 sequence (Q8BHY3 1-960 I512A): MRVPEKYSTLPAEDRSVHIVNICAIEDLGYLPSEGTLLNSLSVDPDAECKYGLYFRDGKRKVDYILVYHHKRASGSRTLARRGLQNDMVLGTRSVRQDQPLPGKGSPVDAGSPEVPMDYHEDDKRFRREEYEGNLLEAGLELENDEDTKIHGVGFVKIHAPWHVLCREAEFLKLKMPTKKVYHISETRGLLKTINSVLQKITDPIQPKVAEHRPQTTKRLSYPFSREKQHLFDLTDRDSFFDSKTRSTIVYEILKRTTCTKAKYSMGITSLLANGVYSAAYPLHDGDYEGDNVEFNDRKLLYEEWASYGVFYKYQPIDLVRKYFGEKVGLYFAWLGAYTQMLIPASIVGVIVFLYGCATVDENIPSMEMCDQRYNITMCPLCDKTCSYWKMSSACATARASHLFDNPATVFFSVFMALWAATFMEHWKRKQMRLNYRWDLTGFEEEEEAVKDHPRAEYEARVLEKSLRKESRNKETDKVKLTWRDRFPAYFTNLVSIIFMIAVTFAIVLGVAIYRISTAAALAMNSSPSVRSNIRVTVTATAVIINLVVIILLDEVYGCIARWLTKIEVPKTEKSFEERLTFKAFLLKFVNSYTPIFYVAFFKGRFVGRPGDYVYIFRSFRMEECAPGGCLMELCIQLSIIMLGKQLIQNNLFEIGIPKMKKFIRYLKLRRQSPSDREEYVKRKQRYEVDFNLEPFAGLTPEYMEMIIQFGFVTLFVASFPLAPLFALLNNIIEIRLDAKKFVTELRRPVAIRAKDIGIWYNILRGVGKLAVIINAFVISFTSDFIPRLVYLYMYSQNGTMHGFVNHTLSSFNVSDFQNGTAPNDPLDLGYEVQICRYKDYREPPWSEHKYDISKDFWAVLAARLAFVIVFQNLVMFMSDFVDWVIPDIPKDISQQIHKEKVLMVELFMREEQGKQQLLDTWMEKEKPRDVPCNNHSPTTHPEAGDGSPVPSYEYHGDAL
Assay: Inside-out patch recording of 1PBC block, mutant I512A
Type: cell-based
Conditions: for remaining activity at 100 µM: 100 µM 1PBC
Method: HEK293T cells (ATCC CRL-1573) were maintained in Dulbecco’s modified Eagle’s medium (DMEM; Sigma-Aldrich) supplemented with 10 U ml^−1 penicillin, 0.1 mg ml^−1 streptomycin (Sigma-Aldrich), 2 mM L-glutamine (Sigma-Aldrich), and 10% FBS (Sigma-Aldrich) in a humidified atmosphere containing 5% CO2 at 37 °C. HEK293S GnTI^− cells (ATCC CRL-3022) were maintained in HyClone HyCell TransFx-H medium (GE Healthcare) supplemented with 10 U ml^−1 penicillin, 0.1 mg ml^−1 streptomycin, 4 mM L-glutamine, 0.15% poloxamer 188 (Sigma-Aldrich), and 1% FBS in an atmosphere containing 5% CO2 at 185 rpm at 37 °C. The ac splice variant of mouse TMEM16A (UniProt ID: Q8BHY3), mouse TMEM16B (UniProt ID: Q8CFW1), or mouse TMEM16F (UniProt ID: Q6P9J9) bearing a 3C cleavage site, a Venus YFP, a Myc tag, and a Streptavidin-binding peptide (SBP) downstream of the open reading frame in a modified pcDNA3.1 vector (Invitrogen) were used as described previously[21],[31]. Mutations were introduced using a modified QuikChange method[58] and were verified by sequencing.
HEK293T cells were transfected with 3–4 μg DNA per 6 cm Petri dish using the calcium phosphate co-precipitation method and were used within 24–96 h after transfection. Recordings were performed on inside-out patches excised from HEK293T cells expressing the construct of interest. Patch pipettes were pulled from borosilicate glass capillaries (O.D. 1.5 mm, I.D. 0.86 mm, Sutter Instrument) and were fire-polished with a microforge (Narishige) before use. Pipette resistance was typically 3–8 MΩ when filled with the recording solutions detailed below. Seal resistance was typically 4 GΩ or higher. Voltage-clamp recordings were made using Axopatch 200B, Digidata 1550, and Clampex 10.7 (Molecular Devices). Analog signals were filtered with the in-built 4-pole Bessel filter at 10 kHz and were digitized at 20 kHz. Solution exchange was achieved using a gravity-fed system through a theta glass pipette mounted on an ultra-fast piezo-driven stepper (Siskiyou). […] All recordings were performed at 20 °C.
A symmetrical ionic condition was used throughout. Stock solution with Ca^2+-EGTA contained 150 mM NaCl, 5.99 mM Ca(OH)2, 5 mM EGTA, and 10 mM HEPES at pH 7.40. Stock solution with EGTA contained 150 mM NaCl, 5 mM EGTA, and 10 mM HEPES at pH 7.40. Free Ca^2+ concentrations were adjusted by mixing the stock solutions at the required ratios calculated using the WEBMAXC program (http://web.stanford.edu/~cpatton/webmaxcS.htm). Patch pipettes were filled with the stock solution with Ca^2+-EGTA, which has a free Ca^2+ concentration of 1 mM. 1PBC (ChemBridge) stock was reconstituted in anhydrous DMSO (Sigma-Aldrich) at 100 mM and stored at −20 °C. Working solutions with 1PBC were prepared by serial dilution. Unless otherwise stated, experiments were performed at a saturating Ca^2+ concentration as shown in Supplementary Table 1 and the primary data were corrected for current rundown as described previously[21],[25].
Concentration-response relations, obtained from the ratio of the I-V plots before and after the application of the blocker, were fitted to the Hill equation,1 I/Imax=1/1+IC50/[blocker]^h where I/Imax is the normalized current responses, IC50 defines the concentration at which inhibition is at its half-maximum, and h is the Hill coefficient.

IC50 (0 mV, 2 µM Ca2+): 30.7 µM
remaining activity at 3 µM (3 µM 1PBC, +80 mV, saturating Ca2+ (2 µM), read-out: I/Imax): 84.4%
remaining activity at 3 µM (3 µM 1PBC, -80 mV, saturating Ca2+ (2 µM), read-out: I/Imax): 94.5%
remaining activity at 10 µM (10 µM 1PBC, +80 mV, saturating Ca2+ (2 µM), read-out: I/Imax): 63.3%
remaining activity at 10 µM (10 µM 1PBC, -80 mV, saturating Ca2+ (2 µM), read-out: I/Imax): 87.2%
remaining activity at 30 µM (30 µM 1PBC, +80 mV, saturating Ca2+ (2 µM), read-out: I/Imax): 36.4%
remaining activity at 30 µM (30 µM 1PBC, -80 mV, saturating Ca2+ (2 µM), read-out: I/Imax): 65.6%
remaining activity at 100 µM (+80 mV, saturating Ca2+ (2 µM), read-out: I/Imax): 14%
remaining activity at 100 µM (-80 mV, saturating Ca2+ (2 µM), read-out: I/Imax): 36%
remaining activity at 3 µM (1PBC 3, 0 mV, read-out: fraction of unblocked current): 89.8%
remaining activity at 3 µM (1PBC 3, 20 mV, read-out: fraction of unblocked current): 88.3%
remaining activity at 3 µM (1PBC 3, 40 mV, read-out: fraction of unblocked current): 86.4%
remaining activity at 3 µM (1PBC 3, 60 mV, read-out: fraction of unblocked current): 85.9%
remaining activity at 3 µM (1PBC 3, 80 mV, read-out: fraction of unblocked current): 84.4%
remaining activity at 3 µM (1PBC 3, 100 mV, read-out: fraction of unblocked current): 83.9%
remaining activity at 3 µM (1PBC 3, 120 mV, read-out: fraction of unblocked current): 84.8%
remaining activity at 3 µM (1PBC 3, 140 mV, read-out: fraction of unblocked current): 86.4%
remaining activity at 3 µM (1PBC 3, -20 mV, read-out: fraction of unblocked current): 91.3%
remaining activity at 3 µM (1PBC 3, -40 mV, read-out: fraction of unblocked current): 92.6%
remaining activity at 3 µM (1PBC 3, -60 mV, read-out: fraction of unblocked current): 93.3%
remaining activity at 3 µM (1PBC 3, -80 mV, read-out: fraction of unblocked current): 94.5%
remaining activity at 3 µM (1PBC 3, -100 mV, read-out: fraction of unblocked current): 94.8%
remaining activity at 3 µM (1PBC 3, -120 mV, read-out: fraction of unblocked current): 95.1%
remaining activity at 3 µM (1PBC 3, -140 mV, read-out: fraction of unblocked current): 96%
remaining activity at 10 µM (1PBC 10, 0 mV, read-out: fraction of unblocked current): 76.6%
remaining activity at 10 µM (1PBC 10, 20 mV, read-out: fraction of unblocked current): 72.7%
remaining activity at 10 µM (1PBC 10, 40 mV, read-out: fraction of unblocked current): 68.9%
remaining activity at 10 µM (1PBC 10, 60 mV, read-out: fraction of unblocked current): 65.9%
remaining activity at 10 µM (1PBC 10, 80 mV, read-out: fraction of unblocked current): 63.3%
remaining activity at 10 µM (1PBC 10, 100 mV, read-out: fraction of unblocked current): 61.7%
remaining activity at 10 µM (1PBC 10, 120 mV, read-out: fraction of unblocked current): 61.7%
remaining activity at 10 µM (1PBC 10, 140 mV, read-out: fraction of unblocked current): 63.1%
remaining activity at 10 µM (1PBC 10, -20 mV, read-out: fraction of unblocked current): 80.4%
remaining activity at 10 µM (1PBC 10, -40 mV, read-out: fraction of unblocked current): 82.9%
remaining activity at 10 µM (1PBC 10, -60 mV, read-out: fraction of unblocked current): 85.2%
remaining activity at 10 µM (1PBC 10, -80 mV, read-out: fraction of unblocked current): 87.2%
remaining activity at 10 µM (1PBC 10, -100 mV, read-out: fraction of unblocked current): 88.6%
remaining activity at 10 µM (1PBC 10, -120 mV, read-out: fraction of unblocked current): 89%
remaining activity at 10 µM (1PBC 10, -140 mV, read-out: fraction of unblocked current): 89.6%
remaining activity at 30 µM (1PBC 30, 0 mV, read-out: fraction of unblocked current): 50.3%
remaining activity at 30 µM (1PBC 30, 20 mV, read-out: fraction of unblocked current): 46.3%
remaining activity at 30 µM (1PBC 30, 40 mV, read-out: fraction of unblocked current): 42.2%
remaining activity at 30 µM (1PBC 30, 60 mV, read-out: fraction of unblocked current): 39%
remaining activity at 30 µM (1PBC 30, 80 mV, read-out: fraction of unblocked current): 36.4%
remaining activity at 30 µM (1PBC 30, 100 mV, read-out: fraction of unblocked current): 34.7%
remaining activity at 30 µM (1PBC 30, 120 mV, read-out: fraction of unblocked current): 34.2%
remaining activity at 30 µM (1PBC 30, 140 mV, read-out: fraction of unblocked current): 35.1%
remaining activity at 30 µM (1PBC 30, -20 mV, read-out: fraction of unblocked current): 54.2%
remaining activity at 30 µM (1PBC 30, -40 mV, read-out: fraction of unblocked current): 58.4%
Structure (SMILES): N#Cc1c(C(F)(F)F)cc(O)n2c1nc1ccccc12 [1PBC]
